Publication PMC7769561, “Antileishmanial activity of synthetic analogs of the naturally occurring quinolone alkaloid N-methyl-8-methoxyflindersin” (PLoS ONE, 2020)
“And” between values parts separate entries of the source, which are not always exact repeats. Identical values can stand only once.

Experiments:
[1] = tested on: L. (V.) panamensis-infected hMDMs; assay: ROS generation in L. (V.) panamensis-infected hMDMs (H2DCFDA flow cytometry); format: cell-based, human
Description: Next, we detached the cells with ethylenediaminetetraacetic acid (EDTA)/trypsin (Lonza, MD, USA) and 2',7'-dichlorodihydrofluorescein diacetate (H2DCFDA) tagged on a 5 μM fluorescent tube (Sigma-Aldrich) in order to identify intracellular ROS and/or 4-amino-5-methylamino-2′,7′-difluorofluorescein (DAF-FM; Sigma-Aldrich) for NO production in a 5% CO2 atmosphere for 45 min at 37°C. ROS and NO were quantified using flow cytometry (FACS Canto II) at a wavelength of 480 nm. Untreated cells were used as negative controls, while cells treated with 0.0001% H2O2 and 1 μM phorbol myristate acetate were used as ROS production (positive) controls. LPS (10 ng/mL) and phytohemagglutinin (PHA-M) (10 μL/mL) (Invitrogen) were used as positive controls for NO production.

[2] = tested on: L. (V.) panamensis intracellular amastigotes; assay: Transmission electron microscopy of L. (V.) panamensis intracellular amastigotes in hMDMs; format: cell-based, Leishmania (Viannia) panamensis; parameters: Nucleus (ultrastructural alteration grade) / Vacuoles (ultrastructural alteration grade): key: -: no alteration/absence; +: low alteration/low presence; ++: alteration/moderate presence; +++: serious disturbance/abundant presence; conditions: compound at EC50, 72 h, TEM; as to Cell membrane (ultrastructural alteration grade): key: -: no alteration/absence; +: low alteration/low presence; ++: alteration/moderate presence; +++: serious disturbance/abundant presence; as to Flagellum (flagellar/axonema pocket) (grade): key: -: no alteration/absence; +: low alteration/low presence; ++: alteration/moderate presence; +++: serious disturbance/abundant presence; as to LB (lipid bodies, grade): key: -: no alteration/absence; +: low alteration/low presence; ++: alteration/moderate presence; +++: serious disturbance/abundant presence; as to Mitochondria/Kinetoplasts (ultrastructural alteration grade): key: -: no alteration/absence; +: low alteration/low presence; ++: alteration/moderate presence; +++: serious disturbance/abundant presence
Text: This procedure involved including fresh resin and 100–200-nm-wide ultrafine cuts observed by TEM (100X–10.000X) (HITACHI-HU-12; Hitachi, Tokyo, Japan).

[3] = tested on: L. (V.) panamensis intracellular amastigotes; assay: Antileishmanial activity in L. (V.) panamensis intracellular amastigotes in hMDMs; format: cell-based, Leishmania (Viannia) panamensis
Description: Next, 100 μL of the suspension was cultured in 96-well plates and infected with L. (V.) panamensis promastigotes (HMOM/COL/87/UA-140) at a 10:1 parasite:cell ratio. We incubated the plates in a 5% CO2 atmosphere for 4 h at 35°C. After incubation, we removed noninternalized parasites by washing the cells with 0.9% NaCl saline solution (Baxter International, Deerfield, IL, USA). The cells were incubated again for 24 h and then treated with each quinoline alkaloid–like compound at a concentration of 100, 10, 1, 0.1, and 0.01 μg/mL in a 5% CO2 atmosphere for 72 h at 36°C. Next, we quantified the percentage of infected cells using fluorescence microscopy, as previously described by Pérez-Cordero in 2011 [23], and quantified the parasite load (amount of intracellular promastigotes and amastigotes per cell) using Giemsa staining and flow cytometry (Cytomics FC 500 MPL; Beckman Coulter, Brea, CA, USA). […] Results were expressed as EC50 using Prism GraphPad software’s probit nonlinear regression analysis (https://www.graphpad.com/scientific-software/prism/).
We used GraphPad Prism nonlinear regression analysis to estimate the percentage mortality with regard to CC50 and EC50. […] The antileishmanial activity with regard to promastigotes was classified as active according to Eq 2: Active=EC50<[LC50/2], (2) where LC50 is the median lethal concentration. We also used GraphPad Prism nonlinear regression analysis to determine the intracellular antileishmanial activity (concentration vs. response), depending on the infection (number of infected cells) and parasite burden (number of parasites/cell) obtained in experimental conditions. Parasite inhibition was estimated using Eq 3, where the plate MFI is 100% parasites: Infectioninhibition(%)=100−[(MIFexposedparasites/MIFunexposedparasites×100)] (3)
The percentage inhibition was used to calculate EC50 by nonlinear regression analysis (fluorescence microscopy), while the parasite burden was evaluated as the percentage of intracellular promastigotes and amastigotes in 100 infected cells (Giemsa staining). […] The selectivity index (SI) was estimated using the following formula: SI=CC50/EC50

[4] = amastigotes in hMDMs, 72 h, ± SD

1,2,3,4-tetrahydro(benzo)-3-quinolin-ol [Compound 2]
ROS generation ([1]; compound at EC50, 48 h posttreatment): decrease in ROS generation
ROS generation ([1]; compound at EC50, first 4 h): increase in ROS generation
Cell membrane (ultrastructural alteration grade) [2]: -
Flagellum (flagellar/axonema pocket) (description) [2]: Multiple organelles
Flagellum (flagellar/axonema pocket) (grade) [2]: ++
LB (lipid bodies, grade) [2]: +++
Mitochondria/Kinetoplasts (description) [2]: Multiple organelles
Mitochondria/Kinetoplasts (ultrastructural alteration grade) [2]: ++
Nucleus (description) [2]: Abnormal distribution of chromatine
Nucleus (ultrastructural alteration grade) [2]: ++
PV (description) [2]: Multiple
PV (parasitophorous vacuoles, grade) [2]: +
Vacuoles (description) [2]: Double membrane (autophagic-digestives)
Vacuoles (ultrastructural alteration grade) [2]: +++
SI (selectivity index = CC50/EC50) ([3]; CC50 hMDMs / EC50 intracellular amastigotes): 3.64 and > 3
EC50 [3, 4]: 26 µM
EC50 Intracellular amastigotes [3, 4]: 5.2 ± 0.9 µg/mL
Antileishmanial activity class ([3]; intracellular amastigotes, class by EC50): high (high if EC50 < 25 μg/mL)
